Data: patent publication US12458643B2, “Antidepressant/anxiolytic drug in which PAC1 receptor antagonist is used” (KAGOSHIMA UNIVERSITY, priority 2020, dated 2025)

Legend:
Format in all cases: in vivo, mouse
[1] = tested on: normal mice; test: Open field test in normal mice; conditions: normal male C57BL/6J mice, 30 mg/kg i.p., 60 min after administration, 10 min test
Protocol: The effects of PA-8 and PA-81004 on normal mice were evaluated by an open field test (test to measure spontaneous locomotion in a novel environment by exploiting the properties of mice to do exploratory behavior in such a novel environment, and using a 40 cm×40 cm box of 30 cm in height; spontaneous motor activity is measured from the total distance traveled; in this test, anxiety-like behavior is evaluated by exploiting the properties of mice to prefer to stay near walls and avoid light environments, and measuring a time spent in a center zone (20 cm×20 cm) or the number of entries thereto). Male C57BL/6J mice (8 to 12 weeks old) were acclimatized to a laboratory (illuminance: 40 lx) for 60 minutes. Then, a vehicle (10% DMSO solution; dissolved in saline; n=11), PA-8 (30 mg/kg; n=9) or PA-81004 (30 mg/kg; n=12) was intraperitoneally administered thereto (0.1 mL/10 g). After a lapse of 60 minutes after administration, the test was conducted for 10 minutes. The results are shown in FIG. 1 (A: total distance traveled, B: the number of center zone entries, C: time spent in the center zone). The effects of PA-9 and PA-915 on normal mice were evaluated by the open field test. Male C57BL/6J mice (8 to 12 weeks old) were acclimatized to a laboratory (illuminance: 40 lx) for 60 minutes. Then, a vehicle (10% DMSO solution; dissolved in saline; n=10), PA-9 (30 mg/kg; n=11) or PA-915 (30 mg/kg; n=10) was intraperitoneally administered thereto (0.1 mL/10 g). After a lapse of 60 minutes after administration, the test was conducted for 10 minutes. The results are shown in FIG. 5 (A: total distance traveled, B: the number of center zone entries, C: time spent in the center zone).

[2] = tested on: normal mice; test: Elevated plus maze test in normal mice; conditions: normal male C57BL/6J mice, 30 mg/kg i.p., 60 min after administration, 5 min test
Protocol: The effects of PA-8 and PA-81004 on normal mice were evaluated by an elevated plus maze test (test that exploits the properties of mice to avoid heights and prefer to stay near walls; in this test, anxiety-like behavior is evaluated by placing the mice at the center of a maze disposed at a height of 50 cm in which a 26 cm long and 8 cm wide open arm without walls and a closed-arm with walls are disposed in a cross shape, and measuring a time spent in the open arm and the number of entries thereto).
Male C57BL/6J mice (8 to 12 weeks old) were acclimatized to a laboratory (illuminance: 50 lx) for 60 minutes. Then, a vehicle (10% DMSO solution; dissolved in saline; n=13), PA-8 (30 mg/kg; n=12) or PA-81004 (30 mg/kg; n=12) was intraperitoneally administered thereto (0.1 mL/10 g). After a lapse of 60 minutes after administration, the test was conducted for 5 minutes. The results are shown in FIG. 3 (A: total distance traveled, B: the number of open arm (course without walls) entries, C: time spent in the open arm).
The effects of PA-9 and PA-915 on normal mice were evaluated by the elevated plus maze test.
Male C57BL/6J mice (8 to 12 weeks old) were acclimatized to a laboratory (illuminance: 50 lx) for 60 minutes. Then, a vehicle (10% DMSO solution; dissolved in saline; n=8), PA-9 (30 mg/kg; n=8) or PA-915 (30 mg/kg; n=7) was intraperitoneally administered thereto (0.1 mL/10 g). After a lapse of 60 minutes after administration, the test was conducted for 5 minutes. The results are shown in FIG. 7 (A: total distance traveled, B: the number of open arm entries, C: time spent in the open arm).

[3] = tested on: single-restraint stress mice; test: Single-restraint stress-induced anxiety-like behavior, light-dark test; conditions: 30 mg/kg i.p. 30 min before 30 min restraint; 10 min test
Protocol: Male C57BL/6J mice (8 to 12 weeks old) were acclimatized to a laboratory (illuminance: 330 lx) for 60 minutes. Then, a vehicle (10% DMSO solution; dissolved in saline; n=9), PA-8 (30 mg/kg; n=9) or PA-81004 (30 mg/kg; n=10) was intraperitoneally administered thereto (0.1 mL/10 g). After a lapse of 30 minutes after administration, restraint stress (stress caused by holding the mice in tubes of 2.8 cm in diameter with a hole for breathing) was applied thereto for 30 minutes. The light-dark test (10 min) was conducted from immediately after the completion of restraint. Mice that freely behaved in a home cage for 30 minutes without being held and without accessing water and food were used as a control (n=12). The results are shown in FIG. 10 (A: time spent in the light box, B: the number of transitions between the light and dark boxes; light box illuminance: 330 lx). The data was indicated by mean±standard error. **P<0.01, *P<0.05 (One-way ANOVA followed by Tukey-Kramer test). […] Male C57BL/6J mice (8 to 12 weeks old) were acclimatized to a laboratory (illuminance: 330 lx) for 60 minutes. Then, a vehicle (10% DMSO solution; dissolved in saline; n=11), PA-9 (30 mg/kg; n=8) or PA-915 (30 mg/kg; n=9) was intraperitoneally administered thereto (0.1 mL/10 g). After a lapse of 30 minutes after administration, restraint stress (stress caused by holding the mice in tubes of 2.8 cm in diameter with a hole for breathing) was applied thereto for 30 minutes. The light-dark test (10 min) was conducted from immediately after the completion of restraint. Mice that freely behaved in a home cage for 30 minutes without being held and without accessing water and food were used as a control (n=11). The results are shown in FIG. 12 (A: time spent in the light box, B: the number of transitions between the light and dark boxes; light box illuminance: 330 lx). The data was indicated by mean±standard error. **P<0.01, *P<0.05 (One-way ANOVA followed by Tukey-Kramer test).

SMILES	pharmacological action in open field test (total distance traveled, center zone entries, time in center zone) [1]	pharmacological action in elevated plus maze test (total distance, open arm entries, time in open arm) [2]	effect on single-restraint stress-induced anxiety-like behavior (light-dark test) [3]
C=CCOc1ccc(C2CC(=O)Nc3nc(N)[nH]c(=O)c32)cc1OC (stereo not drawn) [PA-8]	no pharmacological action	no pharmacological action	improving effects
O=C(NCCc1c[nH]cn1)C1CC(=O)N(c2n[nH]c3ccccc23)C1 (stereo not drawn) [PA-9]	no pharmacological action	no pharmacological action	improving effects
Nc1nc2c(c(=O)[nH]1)C(c1cccc(OC(F)(F)F)c1)CC(=O)N2 (stereo not drawn) [PA-81004, 2-Amino-5-(3-trifluoromethoxyphenyl)-5,8-dihydro-3H,6H-pyrido[2,3-d]pyrimidine-4,7-dione]	no pharmacological action	no pharmacological action	improving effects
